Experimental data: US20100298141A1, “SUBSTITUTED PYRIDINE N-OXIDE HERBICIDES” (E. I. DU PONT DE NEMOURS AND COMPANY, priority 2007, published 2010)

Experiments:
yellow nutsedge = assay: Test C pre-/postemergence test; type: in vivo, Cyperus esculentus; settings: for Plant response rating, Nutsedge, Yellow: scale 0 to 100, 0 no effect, 100 complete control
Procedure, shortened: (§1)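 Seeds were planted and treated preemergence with test chemical in a non-phytotoxic solvent mixture containing surfactant. Postemergence applications of the same formulation went onto plants 2 to 18 cm tall (1- to 4-leaf stage). A dash marks no test result.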

wheat = assay: Test C pre-/postemergence test; type: in vivo, Triticum aestivum; settings: Postemergence; for Plant response rating, Wheat: scale 0 to 100, 0 no effect, 100 complete control
Procedure, shortened: as §1

kochia = assay: Test C pre-/postemergence test; type: in vivo, Kochia scoparia; settings: for Plant response rating, Kochia: scale 0 to 100, 0 no effect, 100 complete control
Procedure, shortened: as §1

Italian ryegrass = assay: Test C pre-/postemergence test; type: in vivo, Lolium multiflorum; settings: Postemergence; for Plant response rating, Ryegrass, Italian: scale 0 to 100, 0 no effect, 100 complete control
Procedure, shortened: as §1

pigweed = assay: Test C pre-/postemergence test; type: in vivo, Amaranthus retroflexus; settings: for Plant response rating, Pigweed: scale 0 to 100, 0 no effect, 100 complete control
Procedure, shortened: as §1

morningglory [1] = assay: Test A pre-/postemergence greenhouse test; type: in vivo, Ipomoea spp.; settings: for Morningglory plant response rating: 0 to 100 scale
Procedure, shortened: (§2)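 Visual injury ratings, made relative to untreated controls roughly ten days after treatment, cover both preemergence and postemergence application. Compounds in a surfactant-containing non-phytotoxic solvent were sprayed onto the soil surface after sowing and, simultaneously, onto young plants at the one- to two-leaf stage.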

woolly cupgrass = assay: Test C pre-/postemergence test; type: in vivo, Eriochloa villosa; settings: for Plant response rating, Cupgrass, Woolly: scale 0 to 100, 0 no effect, 100 complete control
Procedure, shortened: as §1

green foxtail = assay: Test C pre-/postemergence test; type: in vivo, Setaria viridis; settings: Postemergence; for Plant response rating, Foxtail, Green: scale 0 to 100, 0 no effect, 100 complete control
Procedure, shortened: as §1

soybean = assay: Test C pre-/postemergence test; type: in vivo, Glycine max; settings: for Plant response rating, Soybean: scale 0 to 100, 0 no effect, 100 complete control
Procedure, shortened: as §1

morningglory [2] = assay: Test C pre-/postemergence test; type: in vivo, Ipomoea coccinea; settings: for Plant response rating, Morningglory: scale 0 to 100, 0 no effect, 100 complete control
Procedure, shortened: as §1

cocklebur = assay: Test C pre-/postemergence test; type: in vivo, Xanthium strumarium; settings: for Plant response rating, Cocklebur: scale 0 to 100, 0 no effect, 100 complete control
Procedure, shortened: as §1

[3] = test system: common (oilseed) sunflower; assay: Test C pre-/postemergence test; type: in vivo, Helianthus annuus; settings: for Sunflower plant response rating: preemergence, scale 0 (no effect) to 100 (complete control)
Procedure, shortened: as §1

crabgrass = assay: Test C pre-/postemergence test; type: in vivo, Digitaria sanguinalis; settings: for Plant response rating, Crabgrass, Large: scale 0 to 100, 0 no effect, 100 complete control
Procedure, shortened: as §1

blackgrass = assay: Test C pre-/postemergence test; type: in vivo, Alopecurus myosuroides; settings: Postemergence; for Plant response rating, Blackgrass: scale 0 to 100, 0 no effect, 100 complete control
Procedure, shortened: as §1

corn = assay: Test C pre-/postemergence test; type: in vivo, Zea mays; settings: for Plant response rating, Corn: scale 0 to 100, 0 no effect, 100 complete control
Procedure, shortened: as §1

barnyardgrass = assay: Test A pre-/postemergence greenhouse test; type: in vivo, Echinochloa crus-galli; settings: for Barnyardgrass plant response rating: 0 to 100 scale
Procedure, shortened: as §2

[4] = 31 g ai/ha, Preemergence, scale 0 to 100
[5] = 62 g ai/ha, preemergence, scale 0 (no effect) to 100 (complete control)
[6] = preemergence, 125 g ai/ha, scale 0 (no effect) to 100 (complete control)
[7] = Postemergence, 125 g ai/ha, 0 is no effect, 100 is complete control
[8] = Postemergence, 500 g ai/ha, 0 is no effect, 100 is complete control
[9] = Preemergence, 125 g ai/ha, 0 no effect, 100 complete control
[10] = Preemergence, 500 g ai/ha, 0 to 100 scale where 0 is no effect and 100 is complete control

## Cn1nc(C(F)(F)F)c(C[S+]([O-])c2ccc(Cl)c[n+]2[O-])c1OC(F)F (centres unmarked) [Compound 6]
Yellow nutsedge; [4]
  Nutsedge, Yellow plant response rating: 0
Yellow nutsedge; [5]
  Nutsedge, Yellow plant response rating: 20
Yellow nutsedge; Postemergence, 31 g ai/ha
  Plant response rating (0 to 100), Nutsedge, Yellow: 0
Yellow nutsedge; Postemergence, 62 g ai/ha
  Plant response rating, Nutsedge, Yellow: 0
Yellow nutsedge; Postemergence, 125 g ai/ha
  Plant response rating, Nutsedge, Yellow: 0
Yellow nutsedge; Postemergence, 250 g ai/ha
  Plant response rating, Nutsedge, Yellow: 20
Yellow nutsedge; Preemergence, 250 g ai/ha
  Plant response rating (0 to 100), Nutsedge, Yellow: 98
Yellow nutsedge; [6]
  Nutsedge, Yellow plant response rating: 80
wheat; 31 g ai/ha
  Plant response rating (0 to 100), Wheat: 20
wheat; 62 g ai/ha
  Plant response rating (0 to 100), Wheat: 20
wheat; 125 g ai/ha
  Plant response rating, Wheat: 20
wheat; 250 g ai/ha
  Plant response rating, Wheat: 25
kochia; [5]
  Kochia plant response rating: 0
kochia; Postemergence, 31 g ai/ha
  Plant response rating (0 to 100), Kochia: 0
kochia; Postemergence, 62 g ai/ha
  Plant response rating, Kochia: 0
kochia; Postemergence, 125 g ai/ha
  Plant response rating, Kochia: 0
kochia; Postemergence, 250 g ai/ha
  Plant response rating, Kochia: 0
kochia; Preemergence, 250 g ai/ha
  Plant response rating (0 to 100), Kochia: 0
Italian ryegrass; 31 g ai/ha
  Plant response rating (0 to 100), Ryegrass, Italian: 0
Italian ryegrass; 62 g ai/ha
  Plant response rating (0 to 100), Ryegrass, Italian: 50
Italian ryegrass; 125 g ai/ha
  Plant response rating, Ryegrass, Italian: 85
Italian ryegrass; 250 g ai/ha
  Plant response rating, Ryegrass, Italian: 90
pigweed; [5]
  Pigweed plant response rating: 100
pigweed; Postemergence, 31 g ai/ha
  Plant response rating (0 to 100), Pigweed: 0
pigweed; Postemergence, 62 g ai/ha
  Plant response rating (0 to 100), Pigweed: 0
pigweed; Postemergence, 125 g ai/ha
  Plant response rating, Pigweed: 0
pigweed; Postemergence, 250 g ai/ha
  Plant response rating, Pigweed: 0
pigweed; Preemergence, 250 g ai/ha
  Plant response rating (0 to 100), Pigweed: 100
Morningglory [1]; [7]
  Morningglory plant response rating: 80
Morningglory [1]; [8]
  Morningglory plant response rating: 90
Morningglory [1]; [9]
  Morningglory plant response rating: 90
Morningglory [1]; [10]
  Plant response rating, Morningglory: 100
Woolly cupgrass; [4]
  Cupgrass, Woolly plant response rating: 90
Woolly cupgrass; [5]
  Cupgrass, Woolly plant response rating: 100
Woolly cupgrass; Postemergence, 31 g ai/ha
  Plant response rating (0 to 100), Cupgrass, Woolly: 0
Woolly cupgrass; Postemergence, 62 g ai/ha
  Plant response rating, Cupgrass, Woolly: 0
Woolly cupgrass; Postemergence, 125 g ai/ha
  Plant response rating, Cupgrass, Woolly: 50
Woolly cupgrass; Postemergence, 250 g ai/ha
  Plant response rating, Cupgrass, Woolly: 55
Woolly cupgrass; Preemergence, 250 g ai/ha
  Plant response rating (0 to 100), Cupgrass, Woolly: 100
Woolly cupgrass; [6]
  Cupgrass, Woolly plant response rating: 100
Green foxtail; 31 g ai/ha
  Plant response rating (0 to 100), Foxtail, Green: 30
Green foxtail; 62 g ai/ha
  Plant response rating, Foxtail, Green: 55
Green foxtail; 125 g ai/ha
  Plant response rating, Foxtail, Green: 70
Green foxtail; 250 g ai/ha
  Plant response rating, Foxtail, Green: 70
soybean; [4]
  Soybean plant response rating: 0
soybean; [5]
  Soybean plant response rating: 0
soybean; Postemergence, 31 g ai/ha
  Plant response rating (0 to 100), Soybean: 5
soybean; Postemergence, 62 g ai/ha
  Plant response rating (0 to 100), Soybean: 60
soybean; Postemergence, 125 g ai/ha
  Plant response rating, Soybean: 70
soybean; Postemergence, 250 g ai/ha
  Plant response rating, Soybean: 90
soybean; Preemergence, 250 g ai/ha
  Plant response rating (0 to 100), Soybean: 50
soybean; [6]
  Soybean plant response rating: 0
Morningglory [2]; [4]
  Morningglory plant response rating: 0
Morningglory [2]; [5]
  Morningglory plant response rating: 0
Morningglory [2]; Postemergence, 31 g ai/ha
  Plant response rating (0 to 100), Morningglory: 10
Morningglory [2]; Postemergence, 62 g ai/ha
  Plant response rating, Morningglory: 50
Morningglory [2]; Postemergence, 125 g ai/ha
  Plant response rating, Morningglory: 50
Morningglory [2]; Postemergence, 250 g ai/ha
  Plant response rating, Morningglory: 50
Morningglory [2]; Preemergence, 250 g ai/ha
  Plant response rating (0 to 100), Morningglory: 70
Morningglory [2]; [6]
  Morningglory plant response rating: 10
cocklebur; [4]
  Cocklebur plant response rating: 0
cocklebur; [5]
  Cocklebur plant response rating: 0
cocklebur; Postemergence, 31 g ai/ha
  Plant response rating (0 to 100), Cocklebur: 0
cocklebur; Postemergence, 62 g ai/ha
  Plant response rating, Cocklebur: 0
cocklebur; Postemergence, 125 g ai/ha
  Plant response rating, Cocklebur: 0
cocklebur; Postemergence, 250 g ai/ha
  Plant response rating, Cocklebur: 0
cocklebur; Preemergence, 250 g ai/ha
  Plant response rating (0 to 100), Cocklebur: 0
cocklebur; [6]
  Cocklebur plant response rating: 0
[3]; 62 g ai/ha
  Sunflower plant response rating: 0
[3]; Preemergence, 250 g ai/ha
  Plant response rating (0 to 100), Sunflower: 10
[3]; 125 g ai/ha
  Sunflower plant response rating: 5
crabgrass; [4]
  Crabgrass, Large plant response rating: 98
crabgrass; [5]
  Crabgrass, Large plant response rating: 100
crabgrass; Postemergence, 31 g ai/ha
  Plant response rating (0 to 100), Crabgrass, Large: 5
crabgrass; Postemergence, 62 g ai/ha
  Plant response rating, Crabgrass, Large: 10
crabgrass; Postemergence, 125 g ai/ha
  Plant response rating, Crabgrass, Large: 40
crabgrass; Postemergence, 250 g ai/ha
  Plant response rating, Crabgrass, Large: 45
crabgrass; Preemergence, 250 g ai/ha
  Plant response rating (0 to 100), Crabgrass, Large: 100
crabgrass; [6]
  Crabgrass, Large plant response rating: 100
blackgrass; 31 g ai/ha
  Plant response rating (0 to 100), Blackgrass: 0
blackgrass; 62 g ai/ha
  Plant response rating, Blackgrass: 50
blackgrass; 125 g ai/ha
  Plant response rating, Blackgrass: 50
blackgrass; 250 g ai/ha
  Plant response rating, Blackgrass: 50
corn; [4]
  Corn plant response rating: 0
corn; [5]
  Corn plant response rating: 60
corn; Postemergence, 31 g ai/ha
  Plant response rating (0 to 100), Corn: 0
corn; Postemergence, 62 g ai/ha
  Plant response rating, Corn: 0
corn; Postemergence, 125 g ai/ha
  Plant response rating, Corn: 0
corn; Postemergence, 250 g ai/ha
  Plant response rating, Corn: 0
corn; Preemergence, 250 g ai/ha
  Plant response rating (0 to 100), Corn: 98
corn; [6]
  Corn plant response rating: 60
barnyardgrass; [7]
  Barnyardgrass plant response rating: 80
barnyardgrass; [8]
  Barnyardgrass plant response rating: 90
barnyardgrass; [9]
  Barnyardgrass plant response rating: 100
barnyardgrass; [10]
  Plant response rating, Barnyardgrass: 100
